Consider one compound from patent US20110065760A1, “COMPOUNDS FOR THE INHIBITION OF ROTAMASES AND USE THEREOF” (Jerini AG, priority 2002, published 2011).

Series [1] addresses hPin1 (Homo sapiens, UniProt Q13526). The series is described as follows: protease-coupled PPIase assay, hPin1. Format: biochemical. The settings on record: 6 nM hPin1, substrate Ac-Ala-Ala-Ser(PO3H2)-Pro-Arg-pNA, trypsin, pH 7.8, 6° C.; read-out: IC50 class, Target T-1 (hPin1).
For series [2], the target named is T1, Papain (Carica papaya, UniProt P00784).
T1 sequence (P00784 134-345): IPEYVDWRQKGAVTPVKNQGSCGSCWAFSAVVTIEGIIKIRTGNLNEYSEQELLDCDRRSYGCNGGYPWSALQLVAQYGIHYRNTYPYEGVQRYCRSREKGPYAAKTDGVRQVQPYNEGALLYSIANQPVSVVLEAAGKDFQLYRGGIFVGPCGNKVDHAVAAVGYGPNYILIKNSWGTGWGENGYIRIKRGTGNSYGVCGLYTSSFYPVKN
Briefly: papain assay. The settings on record: 16 μg/ml papain, 2 mM Bz-DL-Arg-pNA, pH 6.5, 30° C., 30 min incubation; read-out: IC50 class, Target T-6 (Papain). Format: biochemical. Put shortly:
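Enzyme pre-incubated 30 min with 1-100 μM compound at 30° C, then pNA substrate added; 4-nitroaniline release read at 390 nm. Trypsin: 0.1 μg/ml, 120 μM Ac-Ala-Ala-Ser(PO3H2)-Pro-Arg-pNA, HEPES pH 7.8; cathepsin B: 0.2 μg/ml, 2 mM Z-Arg-Arg-pNA, phosphate/EDTA/Brij 35 pH 5.8; papain: 16 μg/ml, 2 mM Bz-DL-Arg-pNA, phosphate/L-Cys/EDTA pH 6.5.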

Series [3] addresses T2, Trypsin (UniProt P00760).
T2 sequence (P00760 1-246): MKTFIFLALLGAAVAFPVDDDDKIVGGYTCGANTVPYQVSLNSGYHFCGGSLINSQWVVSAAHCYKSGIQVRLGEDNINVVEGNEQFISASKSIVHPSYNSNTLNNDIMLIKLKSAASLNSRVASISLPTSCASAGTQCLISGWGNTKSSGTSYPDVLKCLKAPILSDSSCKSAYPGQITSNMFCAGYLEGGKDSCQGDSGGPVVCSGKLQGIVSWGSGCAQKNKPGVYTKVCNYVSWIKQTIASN
Briefly: trypsin assay. Format: biochemical. The settings on record: 0.1 μg/ml trypsin, 120 μM Ac-Ala-Ala-Ser(PO3H2)-Pro-Arg-pNA, pH 7.8, 30° C., 30 min incubation; read-out: IC50 class, Target T-7 (Trypsin). The method, then:
(§1) In order to investigate the impact of some of the inventive compounds on the activity of key proteases the following assay was performed: Protease activities were measured spectrophotometrically at 30° C. according to Schomburg and Salzmann (Schomburg, B.; Salzmann M. GBF: Enzyme Handbook. Springer Verlag, Berlin Heidelberg, 1991) and Bergmeyer et al. (Bergmeyer, H. U.; Bergmeyer, J.; Graβl, M. Methods of Enzymatic Analysis, Vol. V Enzymes 3: Peptides, Proteinases and Their Inhibitors. pp 55-371, VCH, Weinheim, 1988). The release of 4-nitroaniline was determined at 390 nm with a Spectramax Plus UV/Vis spectrophotometer (Molecular Devices). The cathepsin B assay was performed in a reaction mixture containing 0.2 μg/ml cathepsin B, 2 mM Z-Arg-Arg-pNA in 88 mM KH2PO4, 12 mM Na2HPO4, 1.33 mM EDTA, 0.03% Brij 35 (pH 5.8). The trypsin assay was carried out in a reaction mixture containing 0.1 μg/ml trypsin and 120 μM Ac-Ala-Ala-Ser(PO3H2)-Pro-Arg-pNA in 35 mM HEPES (pH 7.8) and the papain assay in a mixture consisting of 16 μg/ml papain and 2 mM Bz-DL-Arg-pNA in 10 mM Na2HPO4, 2 mM L-Cys, 5 mM EDTA (pH 6.5). In general, reactions were started by addition of peptide substrate after a 30 min incubation of 1-100 μM effector with given concentrations of enzyme.

Series [4] has as its target cathepsin B (Homo sapiens, UniProt P07858). The series is described as follows: cathepsin B assay. Format: biochemical. The settings on record: 0.2 μg/ml cathepsin B, 2 mM Z-Arg-Arg-pNA, pH 5.8, 30° C., 30 min incubation; read-out: IC50 class, Target T-8 (Cathepsin). The method, then:
as §1

The nature of series [5]: WST-1 cytotoxicity assay, HL-60. The format is cell-based. The settings on record: human, HL-60 cells (acute myeloid leukemia); WST-1, 48 h incubation; read-out: EC50 class, cytotoxic effect, CL-1 (HL-60). Put shortly:
(§2)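 Human tumour cell lines in culture were exposed to compounds at 37° C for 48 h, then given WST-1. Viability was read as formazan absorbance at (450 vs. 620) nm.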

A short description of series [6]: WST-1 cytotoxicity assay, HeLa. Format: cell-based. The following applies: human, HeLa cells (cervix carcinoma); WST-1, 48 h incubation; read-out: EC50 class, cytotoxic effect, CL-2 (HeLa). Put shortly:
as §2

Series [7] in a line: WST-1 cytotoxicity assay, PC-3. The format is cell-based. The settings on record: human, PC-3 cells (prostate carcinoma); WST-1, 48 h incubation; read-out: EC50 class, cytotoxic effect, CL-3 (PC-3). Put shortly: as §2
Series [8] in a line: WST-1 cytotoxicity assay, Caco-2. Format: cell-based. The following applies: human, Caco-2 cells (colon adenocarcinoma); WST-1, 48 h incubation; read-out: EC50 class, cytotoxic effect, CL-4 (Caco-2). The method, then: (§3) For this cytotoxic evaluation of the compounds the commercial available WST-1 assay (Roche) was used according to the manufacturer's instructions. The assay is based on the cleavage of the tetrazolium salt WST-1 by mitochondrial dehydrogenases found in viable cells. In general compounds were added to cells cultured in 96-well plates at 37° C. After 48 h of incubation 10 μl of WST-1 solution was added. The formazan dye was analyzed with an ELISA plate reader at (450 vs. 620) nm. CL-1: human acute myeloid leukemia, HL-60 CL-2: human cervix carcinoma, HeLa CL-3: human prostate carcinoma, PC-3 CL-4: human colon adenocarcinoma, Caco-2 CL-5: human breast adenocarcinoma, MCF-7

A short description of series [9]: WST-1 cytotoxicity assay, MCF-7. The format is cell-based. The following applies: human, MCF-7 cells (breast adenocarcinoma); WST-1, 48 h incubation; read-out: EC50 class, cytotoxic effect, CL-5 (MCF-7). The method, then: as §3
Series [10] relates to HL-60 cells. The series is described as follows: FACS measurements and TUNEL assay (Apo-Direct kit). Format: cell-based, human. The settings on record: FIG. 2. From the text: Enari M. Sakahira H. Yokoyama H. Okawa K. Iwamatsu A. Nagata S. A caspase-activated DNase that degrades DNA during apoptosis, and its inhibitor ICAD [erratum appears in Nature 1998 May 28; 393(6683):396.]. Nature. 391:43-50, 1998 • Darzynkiewicz Z. Juan G. Li X. Gorczyca W. Murakami T. Traganos F. Cytometry in cell necrobiology: analysis of apoptosis and accidental cell death (necrosis). Cytometry. 27:1-20, 1997
Apoptotic HL-60 cells were detected by FACS analysis of FITC-dUTP-labelled DNA breaks using the Apo-Direct kit (BD-Pharmingen) according to the manufacturer's protocol.

The subject of series [11] is Hela cells. The series is described as follows: DAPI staining. The format is cell-based, human. The following applies: FIG. 3. The method, then:
Hela cells grown on poly-L-Lys-coated coverslips were fixed with 2% paraformaldehyde/MeOH.
Cellular DNA was stained with DAPI staining buffer (100 mM Tris (pH 7.4), 150 mM NaCl, 1 mM CaCl2, 0.5 mM MgCl2, 0.1% nonidet P-40, 1 μg/ml DAPI (Molecular Probes)). All the steps were performed at room temperature, and cells were washed two times with PBS after each step. Finally, cells were mounted in 80% glycerol/PBS.

For series [12], the system named is tumor cell lines (HL-60, HeLa, PC-3, Caco-2, MCF-7). The series is described as follows: WST-1 cytotoxicity assay, tumor cell lines (panel statement). The format is cell-based, human. The following applies: WST-1, 48 h; table 4. The method, then:
as §3

The subject of series [13] is cyclin D1 in MCF-7 and HeLa cells. Briefly: Cyclin D1 down regulation (western blot marker analysis). The format is cell-based, human. The method, then: MCF-7 (5×10^5 cells/well) and HeLa cells (1.5×10^5 cells/well) were seeded in 6-well plates and incubated at 37° C. over night. Compounds or DMSO (final solvent concentration 0.1%) were added to the cells and incubated for different times as indicated. Subsequently, cells were lysed in RIPA buffer for 30 min on ice and centrifuged for 20 min at 4° C. After addition of electrophoresis sample buffer (4×) and 50 mM DTT to the supernatant, samples were boiled for 4 min at 95° C. Samples (equivalent to 2×10^5 cells/well) were run on a 15% SDS gel followed by blotting onto PVDF membrane.
The membrane was blocked for 1 h in 10 mM Tris (pH 7.5), 100 mM NaCl, 0.1% Tween-20 and 5% non-fat dry milk (blocking buffer) and incubated for 1 h with mouse anti-hCyclin D1 monoclonal antibody (clone DCS-6, BD Biosciences) diluted to 1 μg/ml in blocking buffer. Blots were washed 3×10 min with 10 mM Tris (pH 7.5), 100 mM NaCl, 0.1% Tween-20 (washing buffer) and incubated with 0.7 μg/ml peroxidase-conjugated sheep anti-mouse IgG (Sigma) in blocking buffer for 1 h. After washing 3×10 min with washing buffer, the plot was developed with the ECL+ detection kit (Amersham Biosciences).

hPin1, sequence (Q13526 whole entry): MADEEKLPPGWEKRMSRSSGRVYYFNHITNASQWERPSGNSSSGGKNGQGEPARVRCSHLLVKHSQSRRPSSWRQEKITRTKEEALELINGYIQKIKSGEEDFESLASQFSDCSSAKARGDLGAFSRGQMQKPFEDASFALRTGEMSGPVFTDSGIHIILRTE

Consider `Cc1c(Cl)cc(NC(=S)Nc2ccc(C(F)(F)F)cc2)c(O)c1Cl` [Compound 264], for which the IC50 in [1] is under 1 µM; in [2], over 100 µM; in series [3], over 100 µM; in series [4] it was over 100 µM. The EC50 at 48 h in series [5], in series [6], in series [7], in series [8] and in [9] was under 10 µM each time. The “induction of apoptosis (FACS analysis of FITC-dUTP-labelled DNA breaks)” value in [10] is given as “induce apoptosis”. Also, the “induction of apoptosis (DAPI staining, fluorescence microscopy)” value in series [11] was “induce apoptosis”. Also, in series [12], the “cytotoxic effect on the tumor cell lines tested” value is “particular relevance”. For the same compound, the “cyclin D1 down regulation” value in series [13] is reported as “particular relevance”.
